What is called EC50 is the concentration needed to bring the measured effect to its halfway point.

The structures appear in SMILES notation. Where two headings read alike, the source gives them in different places.

Results on 15 compounds are retold here after patent US20190367516A1 (Bayer Pharma Aktiengesellschaft, priority 2015, published 2019).

Assay [1] has as its target T1, human M2 receptor (Homo sapiens, UniProt P08172).
T1 sequence (P08172 1-466): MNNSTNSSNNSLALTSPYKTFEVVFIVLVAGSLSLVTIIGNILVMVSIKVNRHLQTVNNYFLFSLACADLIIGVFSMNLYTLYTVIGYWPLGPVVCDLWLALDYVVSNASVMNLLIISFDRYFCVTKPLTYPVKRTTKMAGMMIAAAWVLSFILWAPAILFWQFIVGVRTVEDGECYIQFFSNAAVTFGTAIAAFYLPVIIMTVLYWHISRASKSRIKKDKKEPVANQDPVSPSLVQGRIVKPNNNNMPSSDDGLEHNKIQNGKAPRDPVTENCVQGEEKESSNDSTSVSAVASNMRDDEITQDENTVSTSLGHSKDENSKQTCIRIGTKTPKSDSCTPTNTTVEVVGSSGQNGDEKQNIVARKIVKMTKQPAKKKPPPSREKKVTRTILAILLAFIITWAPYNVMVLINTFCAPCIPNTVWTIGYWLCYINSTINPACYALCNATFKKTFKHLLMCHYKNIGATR
As to conditions: for Emax: read-out: Efficiency, boosting of the acetylcholine effect at EC20 acetylcholine concentration.

Assay [2] concerns the target T1, human M2 receptor. It counts as cell-based. The note with it: α >1 = positive cooperativity. The procedure: B-1.2. Determination of Positive Cooperativity (α Factor)
In contrast to the EC50 determination of the test substances (see B-1.1), however, this is not done using one acetylcholine concentration; instead, every concentration of the test substance is combined with an acetylcholine 8-point dose-response curve. […] The shift in the acetylcholine dose-response curve in the presence of increasing concentrations of the test substance is analysed and quantified by means of GraphPad PRISM (Allosteric EC50 shift). […] Positive cooperativity is the hallmark of a positive allosteric modulator. […] The greater the magnitude of the α value, the greater the extent of cooperativity between orthosteric and allosteric.

[3] abbreviates: Receptor activity EC50, M2-GIRK1/4 activation test, acetylcholine at EC20, allosteric potency, in some cases mean values from two or more determinations.
[4] abbreviates: shift in the acetylcholine dose-response curve (Allosteric EC50 shift, GraphPad PRISM).
Setting [5] is: Receptor activity EC50, allosteric potency at EC20 acetylcholine, M2-GIRK1/4 reporter cells, in some cases mean of two or more determinations.
Where [6] appears, read: shift of acetylcholine dose-response curve (Allosteric EC50 shift).

Consider `O=C(NC(COC(F)(F)F)c1ccccc1)c1cn(-c2ccc(F)cc2F)c2nc(N3C[C@@H](O)CC3=O)ccc2c1=O` (mixture of isomers) [Example 233, 1-(2,4-Difluorophenyl)-7-[(4S)-4-hydroxy-2-oxopyrrolidin-1-yl]-4-oxo-N-[1-phenyl-2-(trifluoromethoxy)ethyl]-1,4-dihydro-1,8-naphthyridine-3-carboxamide], for which it took 57 nM to reach a half-maximal effect on human M2 receptor [1] (setting [3]) (EC50). For the same compound, the “Cooperativity (alpha factor)” value on human M2 receptor [2] (setting [4]) is 41.

For the compound `O=C(NC(c1c(F)cccc1F)C(F)(F)F)c1cn(-c2ccc(F)cc2F)c2nc(N3CC[C@H](F)C3)ccc2c1=O` (mixture of isomers) [Example 241, 1-(2,4-Difluorophenyl)-N-[1-(2,6-difluorophenyl)-2,2,2-trifluoroethyl]-7-[(3S)-3-fluoropyrrolidin-1-yl]-4-oxo-1,4-dihydro-1,8-naphthyridine-3-carboxamide], the EC50 on human M2 receptor [1] (setting [3]) was determined as 21 nM. Moreover, at human M2 receptor [2] (setting [4]), the “Cooperativity (alpha factor)” value came to 18.

At human M2 receptor [1] (setting [3]), `O=C(NC(c1c(F)cccc1F)C(F)(F)F)c1cn(-c2ccc(F)cc2F)c2nc(N3C[C@@H](O)CC3=O)ccc2c1=O` (mixture of isomers) [Example 244, 1-(2,4-Difluorophenyl)-N-[1-(2,6-difluorophenyl)-2,2,2-trifluoroethyl]-7-[(4S)-4-hydroxy-2-oxopyrrolidin-1-yl]-4-oxo-1,4-dihydro-1,8-naphthyridine-3-carboxamide] had an EC50 of 22 nM. Moreover, the “Cooperativity (alpha factor)” value on human M2 receptor [2] (setting [4]) is reported as 58.

The compound `CC[C@@H](NC(=O)c1cn(-c2ccc(F)cc2F)c2nc(N3CC4CC4(O)C3)ccc2c1=O)C(F)(F)F` (mixture of isomers) [Example 267, 1-(2,4-Difluorophenyl)-7-[1-hydroxy-3-azabicyclo[3.1.0]hex-3-yl]-4-oxo-N-[(2R)-1,1,1-trifluorobutan-2-yl]-1,4-dihydro-1,8-naphthyridine-3-carboxamide] gave an EC50 at human M2 receptor [1] (setting [3]) of 24 nM. The “Cooperativity (alpha factor)” value on human M2 receptor [2] (setting [4]) was found to be 28.

Turning to `CC[C@@H](NC(=O)c1cn(-c2c(F)cccc2F)c2nc(N3CCC(C)(O)C3)ccc2c1=O)C(F)(F)F` (mixture of isomers) [Example 276, 1-(2,6-Difluorophenyl)-7-[3-hydroxy-3-methylpyrrolidin-1-yl]-4-oxo-N-[(2R)-1,1,1-trifluorobutan-2-yl]-1,4-dihydro-1,8-naphthyridine-3-carboxamide], the response on human M2 receptor [1] (setting [3]) was half-maximal at 80 nM (EC50). Besides, the “Cooperativity (alpha factor)” value on human M2 receptor [2] (setting [4]) is 28.

As for `CC[C@@H](NC(=O)c1cn(-c2c(F)cc(F)cc2F)c2nc(N3CCC(O)C3=O)ccc2c1=O)C(F)(F)F` (mixture of isomers) [Example 280, 7-[3-Hydroxy-2-oxopyrrolidin-1-yl]-4-oxo-N-[(2R)-1,1,1-trifluorobutan-2-yl]-1-(2,4,6-trifluorophenyl)-1,4-dihydro-1,8-naphthyridine-3-carboxamide], it took 44 nM to reach a half-maximal effect on human M2 receptor [1] (setting [3]) (EC50). Also, the “Cooperativity (alpha factor)” value on human M2 receptor [2] (setting [4]) was determined as 24.

Consider `O=C(NC(c1ccccc1Cl)C(F)(F)F)c1cn(-c2ccccc2F)c2nc(N3CCC(O)C3=O)ccc2c1=O` (racemic) [Example 287, N-[1-(2-Chlorophenyl)-2,2,2-trifluoroethyl]-1-(2-fluorophenyl)-7-[3-hydroxy-2-oxopyrrolidin-1-yl]-4-oxo-1,4-dihydro-1,8-naphthyridine-3-carboxamide], for which a half-maximal response at human M2 receptor [1] (setting [3]) (EC50) required 145 nM. Besides, the “Cooperativity (alpha factor)” value at human M2 receptor [2] (setting [4]) is listed as 24.

At human M2 receptor [1] (setting [3]), `O=C(NC(C1CC1)C(F)(F)F)c1cn(-c2c(F)cccc2F)c2nc(N3C[C@@H](O)CC3=O)ccc2c1=O` (mixture of isomers) [Example 295, N-[1-Cyclopropyl-2,2,2-trifluoroethyl]-1-(2,6-difluorophenyl)-7-[(4S)-4-hydroxy-2-oxopyrrolidin-1-yl]-4-oxo-1,4-dihydro-1,8-naphthyridine-3-carboxamide] yielded an EC50 of 21 nM. Besides, on human M2 receptor [2] (setting [4]), the “Cooperativity (alpha factor)” value stood at 71.

Consider `CC[C@@H](NC(=O)c1cn(-c2ccc(F)cc2F)c2nc(N3CC(C)CC3=O)ccc2c1=O)C(F)(F)F` (mixture of isomers) [Example 301, 1-(2,4-Difluorophenyl)-7-[4-methyl-2-oxopyrrolidin-1-yl]-4-oxo-N-[(2R)-1,1,1-trifluorobutan-2-yl]-1,4-dihydro-1,8-naphthyridine-3-carboxamide], for which the EC50 at human M2 receptor [1] (setting [3]) worked out at 30 nM. On human M2 receptor [2] (setting [4]), the “Cooperativity (alpha factor)” value was 12.

Regarding `CC[C@@H](NC(=O)c1cn(-c2c(F)cccc2F)c2nc(N3CC4CC4(O)C3)ccc2c1=O)C(F)(F)F` (mixture of isomers) [Example 304, 1-(2,6-Difluorophenyl)-7-[1-hydroxy-3-azabicyclo[3.1.0]hex-3-yl]-4-oxo-N-[(2R)-1,1,1-trifluorobutan-2-yl]-1,4-dihydro-1,8-naphthyridine-3-carboxamide], on human M2 receptor [1] (setting [3]), the EC50 is 9 nM. The “Cooperativity (alpha factor)” value on human M2 receptor [2] (setting [4]) is recorded as 24.

In the case of `CC[C@@H](NC(=O)c1cn(-c2c(F)cccc2Cl)c2nc(N3CC4CC4(O)C3)ccc2c1=O)C(F)(F)F` (mixture of isomers) [Example 310, 1-(2-Chloro-6-fluorophenyl)-7-[1-hydroxy-3-azabicyclo[3.1.0]hex-3-yl]-4-oxo-N-[(2R)-1,1,1-trifluorobutan-2-yl]-1,4-dihydro-1,8-naphthyridine-3-carboxamide], at human M2 receptor [1] (setting [3]), the response was half-maximal at 14 nM (EC50). The “Cooperativity (alpha factor)” value on human M2 receptor [2] (setting [4]) was found to be 21.

Take `C[C@H](NC(=O)c1cn(-c2c(F)cccc2F)c2nc(N3CC4CC4(O)C3)ccc2c1=O)C(F)(F)F` (mixture of isomers) [Example 311, 1-(2,6-Difluorophenyl)-7-[1-hydroxy-3-azabicyclo[3.1.0]hex-3-yl]-4-oxo-N-[(2S)-1,1,1-trifluoropropan-2-yl]-1,4-dihydro-1,8-naphthyridine-3-carboxamide]: at human M2 receptor [1] (setting [3]), the EC50 came to 25 nM. For the same compound, the “Cooperativity (alpha factor)” value on human M2 receptor [2] (setting [4]) came out at 20.

`CCC(COC(F)(F)F)NC(=O)c1cn(-c2c(F)cc(F)cc2F)c2nc(N3C[C@@H](O)CC3=O)ccc2c1=O` (mixture of isomers) [Example 410, 7-[(4S)-4-Hydroxy-2-oxopyrrolidin-1-yl]-4-oxo-N-[1-(trifluoromethoxy)butan-2-yl]-1-(2,4,6-trifluorophenyl)-1,4-dihydro-1,8-naphthyridine-3-carboxamide] returned an EC50 on human M2 receptor [1] (setting [5]) of 9 nM. Moreover, the Emax on human M2 receptor [1] (M2-GIRK1/4 reporter cells) was found to be 87%. On human M2 receptor [2] (setting [6]), the “Cooperativity (alpha factor)” value was determined as 36.

At human M2 receptor [1] (setting [5]), `CC1CCN(c2ccc3c(=O)c(C(=O)N[C@@H](C)C(F)(F)F)cn(-c4c(F)cc(F)cc4Cl)c3n2)C1=O` (mixture of isomers) [Example 418, 1-(2-Chloro-4,6-difluorophenyl)-7-[3-methyl-2-oxopyrrolidin-1-yl]-4-oxo-N-[(2S)-1,1,1-trifluoropropan-2-yl]-1,4-dihydro-1,8-naphthyridine-3-carboxamide] came in with an EC50 of 17 nM. For the same compound, the Emax on human M2 receptor [1] (M2-GIRK1/4 reporter cells) was 89%. At human M2 receptor [2] (setting [6]), the “Cooperativity (alpha factor)” value is reported as 7.

As for `CC[C@H](NC(=O)c1cn(-c2c(F)cc(F)cc2Cl)c2nc(N3CCC(C)C3=O)ccc2c1=O)C(F)(F)F` (mixture of isomers) [Example 422, 1-(2-Chloro-4,6-difluorophenyl)-7-[3-methyl-2-oxopyrrolidin-1-yl]-4-oxo-N-[(2S)-1,1,1-trifluorobutan-2-yl]-1,4-dihydro-1,8-naphthyridine-3-carboxamide], the EC50 on human M2 receptor [1] (setting [5]) came to 6 nM. Also, at human M2 receptor [1] (M2-GIRK1/4 reporter cells), the Emax came out at 79%. For the same compound, at human M2 receptor [2] (setting [6]), the “Cooperativity (alpha factor)” value is listed as 16.
